Laboratory results as given in BindingDB's records for patent US20250051323 (Richter Gedeon, 2025).

Target: T1, GABA-A receptor; alpha-5/beta-3/gamma-2 (Homo sapiens, UniProt P18507+P28472+P31644)
T1 sequence (P31644 whole entry): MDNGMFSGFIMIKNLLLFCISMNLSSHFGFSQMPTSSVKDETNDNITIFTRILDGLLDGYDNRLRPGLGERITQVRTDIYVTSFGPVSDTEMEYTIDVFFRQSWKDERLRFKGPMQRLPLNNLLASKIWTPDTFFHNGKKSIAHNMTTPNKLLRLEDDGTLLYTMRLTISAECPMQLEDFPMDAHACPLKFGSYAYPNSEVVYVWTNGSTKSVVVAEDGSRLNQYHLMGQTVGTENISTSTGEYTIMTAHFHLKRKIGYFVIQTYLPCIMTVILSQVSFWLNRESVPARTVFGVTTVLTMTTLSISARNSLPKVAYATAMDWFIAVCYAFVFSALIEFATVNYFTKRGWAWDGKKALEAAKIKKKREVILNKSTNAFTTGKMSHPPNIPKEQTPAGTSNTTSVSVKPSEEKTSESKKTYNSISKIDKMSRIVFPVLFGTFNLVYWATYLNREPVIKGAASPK
T1 sequence (P18507 whole entry): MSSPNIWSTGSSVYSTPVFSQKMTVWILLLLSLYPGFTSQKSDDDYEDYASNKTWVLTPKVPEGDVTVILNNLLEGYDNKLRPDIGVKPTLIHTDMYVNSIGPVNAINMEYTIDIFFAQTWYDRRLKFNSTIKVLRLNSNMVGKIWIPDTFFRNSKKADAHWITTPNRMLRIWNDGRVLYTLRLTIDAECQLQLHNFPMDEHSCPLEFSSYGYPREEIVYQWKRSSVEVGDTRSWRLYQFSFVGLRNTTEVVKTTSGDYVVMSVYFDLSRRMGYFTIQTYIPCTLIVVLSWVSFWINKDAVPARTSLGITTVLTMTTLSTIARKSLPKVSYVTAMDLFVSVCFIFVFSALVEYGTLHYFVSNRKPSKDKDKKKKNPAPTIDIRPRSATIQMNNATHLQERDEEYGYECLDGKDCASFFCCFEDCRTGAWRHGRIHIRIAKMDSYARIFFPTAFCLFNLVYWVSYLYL
T1 sequence (P28472 whole entry): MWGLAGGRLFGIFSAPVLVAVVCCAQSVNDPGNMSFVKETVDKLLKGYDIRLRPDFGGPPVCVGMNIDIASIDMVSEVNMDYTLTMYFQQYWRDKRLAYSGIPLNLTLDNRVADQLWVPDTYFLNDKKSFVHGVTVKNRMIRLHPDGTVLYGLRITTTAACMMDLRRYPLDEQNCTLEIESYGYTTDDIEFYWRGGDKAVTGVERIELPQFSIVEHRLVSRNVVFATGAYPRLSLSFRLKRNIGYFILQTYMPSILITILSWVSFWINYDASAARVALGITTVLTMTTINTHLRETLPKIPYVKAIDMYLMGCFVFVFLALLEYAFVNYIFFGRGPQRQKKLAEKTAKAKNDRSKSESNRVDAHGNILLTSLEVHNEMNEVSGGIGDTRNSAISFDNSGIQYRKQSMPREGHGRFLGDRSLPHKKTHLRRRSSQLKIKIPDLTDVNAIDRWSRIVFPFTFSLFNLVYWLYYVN
Test: Binding Assay
Description: Receptor binding assays were performed in 96-well format in deep-well plates. For each 96-well plate one ampule of membrane homogenate was thawed and diluted in binding buffer (50 mM Tris pH=7.4, 100 mM KCl) and 200 μL was dispensed into each well. Radioligand [3H]Ro151788 (Perkin Elmer: NET757250UC) was prepared in binding buffer and added to each well in 50 μL volume to give final concentration of 0.5 nM. Test compounds in suitable concentration(s) were added in additional 50 μL. The final assay volume was 300 μL. Incubation was carried out for 60 minutes at 4° C. For non-specific binding 10 μM unlabeled diazepam was used. After incubation samples were filtered over UniFilter GF/B™ using Filtermate Harvester (Perkin Elmer) and washed with 5×1 mL binding buffer. The plate was dried at 40° C. for an hour and 40 μL Microscint (Perkin Elmer) scintillation cocktail was added to each well. The plate was read in Microbeta (Perkin Elmer).

## Cc1ccc(-n2nnc(C)c2COc2cc3c(cn2)CN(C2(C(C)C)COC2)CC3)cn1 [US20250051323, Example 42]
  Ki: 28 nM

## COc1ccc(-n2nnc(C)c2COc2cc3c(cn2)CN(C2CCOCC2)CC3)cn1 [US20250051323, Example 40]
  Ki: 28.5 nM

## Cc1nnn(-c2ccc(C(F)(F)F)nc2)c1COc1cc2c(cn1)CN(c1cccnc1)CC2 [US20250051323, Example 37]
  Ki: 37.9 nM

## Cc1ccc(-c2noc(C)c2COc2cc3c(cn2)CN(C2CCC2)CC3)cn1 [US20250051323, Example 4]
  Ki: 4.5 nM

## Cc1onc(-c2ccc(C(F)(F)F)nc2)c1COc1cc2c(nn1)CN(C1CCOC1)CC2 (stereo not drawn) [US20250051323, Example 18]
  Ki: 12.7 nM

## Cc1ccc(-n2nnc(C)c2COc2cc3c(cn2)CN(CC(C)C)CC3)cn1 [US20250051323, Example 41]
  Ki: 61.5 nM

## Cc1nnn(-c2ccc(C(F)(F)F)nc2)c1COc1cc2c(cn1)CN(CC1CCS(=O)(=O)C1)CC2 (stereo not drawn) [US20250051323, Example 36]
  Ki: 53.5 nM

## CCC1(N2CCc3cc(OCc4c(C)nnn4-c4ccc(C)nc4)ncc3C2)COC1 [US20250051323, Example 43]
  Ki: 19 nM
